Test results taken from patent US20120277161A1, “INHIBITION OF MULTIPLE CELL ACTIVATION PATHWAYS” (INTER-K PTY LIMITED, priority 2009, published 2012).

Key:
[1] = system: ADDP human ovarian carcinoma cell line; assay: Cell proliferation (MTT) assay, ADDP cells; format: cell-based
Protocol: (§1) 6.1 Cell Proliferation (MTT) Assay Single cell suspensions of viable trypsinised cells were seeded into 96-well tissue culture plates at a density of 2×10^3 cells per well in a volume of 100 μl of a suitable culture media supplemented with heat inactivated foetal calf serum (FCS) (e.g., Dulbecco's Modified Eagles Medium (DMEM), with 10% v/v FCS, 1% L-glutamine, 2% (v/v) Hepes, and antibiotics). A set of triplicate wells was prepared for each concentration of the peptide dendrimer being tested. Additional sample wells containing untreated cells or media alone were set up in each treatment plate and processed in parallel as reference controls. A zero-time plate of untreated cells and media-alone wells was simultaneously prepared and an MTT assay carried out on this plate at the time of addition of the kinase inhibitor (i.e., polypeptide or dendrimer) to treatment plates. All plates were cultured for 24 hours before addition of the test dendrimer.
(§2) To prepare the MTT solution 100 mg of MTT (3-(4,5-dimethylthiazolyl-2)-2,5-diphenyltetrazolium bromide) (Cat #. M-128, Sigma, St Louis Mo.), is mixed with 20 ml of PBS at pH 7.4. The resulting solution is filter sterilized (0.2 μM syringe filter) and stored at 4° C. protected from light until use. MTT substrate is cleaved in growing cells to yield a water insoluble salt. After solubilisation of the salt crystals, a coloured product is produced the measurement of which allows quantitation of the proliferative activity of the cultured cells.
(§3) Appropriate concentrations of the kinase inhibitor were prepared by dilution of freshly prepared sterile 1 mM stock solutions into cell culture media to give a final well volume of 200 μl containing 10% v/v FCS. The zero-plate was processed by addition of MTT at this time. Cell culture was continued for a further 24 or 48 hours before addition of 20 μl of MTT in PBS (5 mg/ml, 0.2 um filter sterilised). The MTT cell proliferation assay measures cell proliferation rate and, in instances where cell viability is compromised, the assay indicates a comparative reduction in cell viability. After a 3 hour incubation in the presence of MTT (5% CO2 in air at 37° C.), plates were centrifuged at 450 g for 5 minutes, supernatant was removed by gentle suction and precipitated tetrazolium salt resuspended into 150 μl DMSO:glycine (0.1M glycine, 0.1M NaCl pH 10.5) (6:1 v/v) solution. Plates were gently vortexed to complete solubilisation of crystalline material and absorbance was read at 550 nm using a microplate reader. Sample data were processed to determine the comparative growth of treated samples relative to untreated controls.

[2] = system: HT29 human colon cancer cells; assay: Cell proliferation (MTT) assay, HT29 cells; format: cell-based
Protocol: as §1, §2, §3
HT29 cells were cultured for 48 hours in the presence of selected dendrimers and proliferation of the cells was assessed by MTT assay essentially as described in Example 6.1. The results were calculated as percentage proliferation of control cells (not treated with dendrimer).

AAVALLPAVLLALLARSKAKNPLYR [IK2]
observed inhibition in combination with oxaliplatin versus calculated additive effect, ADDP cells ([1]; 5 μM or 10 μM IK2 peptide, FIGS. 7A, 7B): synergistic outcome
effect in combination with cisplatin versus calculated additive effect, ADDP cells ([1]; 30 μM IK2 peptide, FIG. 8): synergistic effect
inhibition of the growth of ADDP cancer cells in combination with cisplatin ([1]; compared to cisplatin or IK2 alone, FIG. 6): high level inhibition of the growth
inhibition of the growth of ADDP cancer cells in combination with oxaliplatin ([1]; compared to oxaliplatin or IK2 alone): high level inhibition of the growth
effect in combination with cisplatin versus calculated additive effect, HT29 cells ([2]; 30 μM IK2 peptide, FIG. 9): synergistic effect

dendrimer presenting 12 monomer units of the peptide RSKAKNPLYR [Dend 12-10(4)]
IC50 ([2]; MTT, 48 hours): 1000 nM
dendrimer concentration required for total kill, HT29 cells ([2]; MTT, 48 hours): 10 µM
inhibition of proliferation of HT29 cells ([2]; MTT, 48 hours): more effective than Dend 9-10(4)
